One data set deals with RAW 264.7 macrophages. Put plainly: MTT cell viability of LPS activated RAW 264.7 macrophages. It counts as cell-based, mouse. Particulars: 10 μM, 24 h. The procedure: FIG. 16: Cytotoxicity of Platin-A (10 μM), cisplatin (10 μM), aspirin (10 μM), and cisplatin (10 μM)+aspirin (10 μM) on LPS activated RAW 264.7 macrophages with incubation time of 24 h.
The cytotoxic behaviors of cisplatin, aspirin, cisplatin+aspirin, and Platin-A were evaluated using the MTT assay against PC3, DU145, LNCaP, and RAW 264.7 cells. Cells (2000 cells/well for PC3, and DU145 cells; 10000 cells/well for LNCaP and RAW 264.7) were seeded on a 96-well plate in 100 μL of desired medium and incubated for 24 h. The cells were treated with different constructs at varying concentrations and incubated for 72 h at 37° C. except for RAW 264.7 macrophages. An incubation time period of 24 h was used for macrophages. The cells were then treated with 20 μL of MTT (5 mg/mL in PBS) for 5 h. The medium was removed, the cells were lysed with 100 μL of DMSO, and the absorbance of the purple formazan was recorded at 550 nm using a Bio-Tek Synergy HT microplate reader. Each well was performed in triplicate. […] The IC50 values were reported at +95% confidence intervals.

A further data set concerns the target T1, ovine COX-1 (Ovis aries, UniProt P05979).
T1 construct: purchased Cayman Chemicals 560101
T1 sequence (P05979 25-600): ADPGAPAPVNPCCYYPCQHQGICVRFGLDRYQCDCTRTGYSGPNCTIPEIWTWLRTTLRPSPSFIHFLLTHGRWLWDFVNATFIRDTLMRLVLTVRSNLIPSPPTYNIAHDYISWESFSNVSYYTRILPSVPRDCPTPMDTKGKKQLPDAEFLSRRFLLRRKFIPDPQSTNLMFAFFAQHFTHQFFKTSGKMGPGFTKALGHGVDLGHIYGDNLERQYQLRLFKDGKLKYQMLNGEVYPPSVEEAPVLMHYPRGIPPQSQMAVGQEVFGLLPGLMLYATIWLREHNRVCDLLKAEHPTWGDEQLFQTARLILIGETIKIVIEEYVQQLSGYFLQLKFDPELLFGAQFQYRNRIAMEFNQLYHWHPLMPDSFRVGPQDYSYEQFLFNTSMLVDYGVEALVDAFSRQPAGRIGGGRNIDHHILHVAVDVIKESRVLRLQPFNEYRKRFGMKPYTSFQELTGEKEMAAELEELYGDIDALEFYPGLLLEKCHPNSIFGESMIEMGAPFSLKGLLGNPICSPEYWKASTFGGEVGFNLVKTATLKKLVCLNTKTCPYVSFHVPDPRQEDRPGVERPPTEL
Put plainly: In vitro COX inhibition assay (EIA), COX-1. It counts as biochemical. To be noted: ovine COX-1, EIA, 0.25-1.5 mM, aspirin as positive control. The procedure:
An enzyme immunoassay (EIA) kit from Cayman Chemicals (catalogue number 560101) was used to assess the ability of Platin-A to inhibit ovine COX-1 and COX-2. COX inhibition assay was performed as per the manufacturer protocol. All stock solutions were prepared following manufactures instruction. This inhibition assay was carried out using a two-step process: COX reaction and EIA. COX reaction involved preparation of following samples.
(i) Background samples: COX-1 and COX-2 were inactivated by transferring 20 μL of each enzyme to an eppendorf tube and placing the tube in boiling water for 3 min. […] (ii) COX-1 or COX-2 100% initial activity samples: 950 μL of reaction buffer, 10 μL of heme, 10 μL of COX-1 or COX-2, and 20 μL of reaction buffer were added to each test tube. (iii) COX-1 or COX-2 inhibitor samples: 950 μL of reaction buffer, 10 μL of heme, 10 μL of COX-1 or COX-2 and 20 μL of COX-1 and COX-2 inhibitors under investigation, aspirin and Platin-A of different concentrations (0.25, 0.5, 0.75, 1, and 1.5 mM for COX-1; 0.75, 1, 1.25, 1.5, and 2 mM for COX-2) were added to each test tube.
All the samples were incubated for 5 min in water bath at 37° C. […]
For EIA, 100 μL of EIA buffer was added to non-specific binding well and 50 μL of EIA buffer to maximum binding wells. […] Absorbance was recorded at a wavelength of 410 nm using a plate reader.

The next data set concerns TNF-α. Put plainly: ELISA of TNF-α in LPS-stimulated RAW 264.7 macrophages. It is filed as cell-based, mouse. Background: An ELISA detects its analyte on a solid surface through an enzyme-linked reagent.
A short description of the next data set: Cyclic voltammetry. It counts as physicochemical. As for the experimental part:
FIG. 6: Cyclic voltammograms of ‘Platin-A’ in 1:4 dimethyformamide (DMF)-phosphate buffer-0.1 M KCl at two different pH values.
Electrochemical measurements were made at 25° C. on an analytical system model CHI 920c potentiostat from CH Instruments, Inc. (Austin, Tex.). A conventional three-electrode set-up comprising a glassy carbon working electrode, platinum wire auxiliary electrode and an Ag/AgCl (3M KCl) reference electrode was used for electrochemical measurements. The electrochemical data were uncorrected for junction potentials. KCl was used as a supporting electrolyte. Platin-A (2 mM) solutions were prepared in 20% DMF-phosphate buffered saline (PBS) of pH 6.4 and 7.4 with […] and voltammograms were recorded at different scan rates (FIG. 6).

Protocol for TNF-α: RAW 264.7 cells were plated at a concentration of 10,000 cells/mL in 96 plates and allowed to grow overnight. For preventative anti-inflammatory treatment, Platin-A (10 μM), aspirin (10 μM), cisplatin (10 μM) and an equimolar ratio of cisplatin and aspirin (10 μM each) was incubated with the RAW cells for 6 h. Lipopolysaccharide (LPS) (100 ng/mL) was added and the cells were further incubated for 12 h. For therapeutic anti-inflammatory treatment, LPS (100 ng/mL) was added to the RAW cells and incubated for 6 h. Platin-A (10 μM), aspirin (10 μM), cisplatin (10 μM) and an equimolar ratio of cisplatin and aspirin (10 μM each) was then added to the cells and incubated for 12 h. ELISA was performed on the supernatants against the cytokines interleukin (IL)-6, IL-10, and TNF-α. Briefly, antibody coated plates were blocked with 10% FBS in PBS for 1 h at room temperature followed by 3 washes. RAW cell supernatants were incubated on the plates for 2 h at room temperature. This was immediately followed by washings and sequential incubations with the cytokine-biotin conjugate and streptavidin working solution. Finally, the substrate reagent containing 3,3′,5,5′-tetramethylbenzidine (100 μL) was added to each well, incubated for 15 min, the reaction was stopped by adding 50 μL H2SO4 (0.1 M). The absorbance was recorded at 450 nm using a BioTek Synergy HT well plate reader.

For the compound `CC(=O)Oc1ccccc1C(=O)[O][Pt]([NH2])([NH2])([OH])([Cl])[Cl]` [Platin-A], the cell viability entry with RAW 264.7 macrophages is “did not affect cell viability”. Also, the COX-1 inhibition result on ovine COX-1 was “very similar inhibition of both COX-1 and COX-2 as shown by aspirin”. The “LPS-induced TNF-α production” value in the data set with TNF-α (preventive: pretreatment 10 μM 6 h, then LPS 12 h) is given as “significantly inhibited”. Further, in the data set on TNF-α (therapeutic: LPS activated macrophages then 10 μM for 12 h), the “levels of TNF-α” value is on record as “significantly reduced”. In “Cyclic voltammetry” (pH 6.4 compared with pH 7.4), the “positive shift of reduction potential” value was determined as 42 mV. This compound returned a reduction potential in “Cyclic voltammetry” (pH 7.4, vs. normal hydrogen electrode (NHE)) of −536 mV.

For the origin of these results see patent US20170190726A9, “PRODRUG FOR RELEASE OF CISPLATIN AND CYCLOOXYGENASE INHIBITOR” (priority 2013, published 2017).
